Data reported in US20070172521A1, “Levetiracetam formulations and methods for their manufacture” (priority 2006, published 2007).

Test: Particle size of the levetiracetam used
Format: physicochemical
Conditions: levetiracetam used in the examples
Protocol: In order to avoid possible handling difficulties, the levetiracetam used preferably comprises particles having a particle size distribution such that d(0.1) is Not Less Than (NLT) about 0.6 μm, d(0.5) is from about 10 to about 30 μm, and d(0.9) is Not More Than (NMT) about 65 μm. In addition, the Bulk Density is NLT 0.2 g/cm^3, and the Tapped Density is NLT 0.35 g/cm^3. […] To minimize the impact of particle size on the levetiracetam release rate, a disintegrant was added intra- and extra-granularly. Although the resulting dissolution rate is somewhat slower than that of the commercial product, the product of present invention is found to be bio-equivalent to the marketed product in both fasting and food bio-equivalent studies.

Particle size: about 50 μm
Structure (SMILES): CC[C@@H](C(N)=O)N1CCCC1=O [levetiracetam, (−)-(S)-(alpha)-ethyl-2-oxo-1-pyrrolidine acetamide]
